The supplement of paper PMC10307832

Legend:
Assay in all cases: relative viability (nuclei count vs DMSO), 5 days (fraction); higher = more cells survive
Tanzisertib + Trametinib = compound: O[C@H]1CC[C@H](Nc2ncc3nc(Nc4c(F)cc(F)cc4F)n([C@H]4CCOC4)c3n2)CC1 [Tanzisertib] + CC(=O)Nc1cccc(-n2c(=O)n(C3CC3)c(=O)c3c(Nc4ccc(I)cc4F)n(C)c(=O)c(C)c32)c1 [Trametinib] (partner 0.02 µM)
Procedure, shortened: (§1)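 Relative viability divides the nuclei count in treated wells by that in vehicle wells. Lung cancer cell lines were seeded in 1536-well plates, dosed by pin tool the next day, and fixed and stained after 5 days in one step with final 0.05% Triton X-100, 1% formaldehyde and 1 ug/ml Hoechst. Dosing was a single drug or a fixed anchor-drug dose plus five library-drug doses (not always all listed) in √10 steps, and values are medians of duplicate plates imaged at 4×.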

[1] = compound: C[C@@H](N)c1ccc(C(=O)Nc2ccnc3[nH]ccc23)cc1 + Cc1nc(Nc2ncc(C(=O)Nc3c(C)cccc3Cl)s2)cc(N2CCN(CCO)CC2)n1 [Dasatinib] (partner 0.075 µM)
Procedure, shortened: as §1

[2] = compound: C1CNCCC1C2=CC(=NN2)C3=CC=NC=C3 + Nc1ncn([C@H]2C[C@H](O)[C@@H](CO)O2)c(=O)n1 [Decitabine] (partner 2 µM)
Procedure, shortened: as §1

Tanzisertib + Bortezomib = compound: O[C@H]1CC[C@H](Nc2ncc3nc(Nc4c(F)cc(F)cc4F)n([C@H]4CCOC4)c3n2)CC1 [Tanzisertib] + CC(C)C[C@H](NC(=O)[C@H](Cc1ccccc1)NC(=O)c1cnccn1)B(O)O [Bortezomib] (partner 0.002 µM)
Procedure, shortened: as §1

Cell Line	relative viability (Tanzisertib + Trametinib; first compound 0.08 µM)	relative viability (Tanzisertib + Trametinib; first compound 0.253 µM)	relative viability (Tanzisertib + Trametinib; first compound 0.8 µM)	relative viability (Tanzisertib + Trametinib; first compound 2.53 µM)	relative viability (Tanzisertib + Trametinib; first compound 8 µM)	relative viability ([1]; first compound 0.04 µM)	relative viability ([1]; first compound 0.1265 µM)	relative viability ([1]; first compound 0.4 µM)	relative viability ([1]; first compound 1.265 µM)	relative viability ([1]; first compound 4 µM)	relative viability ([2]; first compound 0.08 µM)	relative viability ([2]; first compound 0.8 µM)	relative viability ([2]; first compound 2.53 µM)	relative viability ([2]; first compound 8 µM)	relative viability (Tanzisertib + Bortezomib; first compound 0.08 µM)	relative viability (Tanzisertib + Bortezomib; first compound 0.253 µM)	relative viability (Tanzisertib + Bortezomib; first compound 0.8 µM)	relative viability (Tanzisertib + Bortezomib; first compound 2.53 µM)	relative viability (Tanzisertib + Bortezomib; first compound 8 µM)
NCI-H1734	0.652	0.669	0.709	0.681	0.721	0.347	0.445	0.38	0.284	0.351	0.452	0.524	0.488	0.497	1.04	0.936	0.856	1.02	0.881
A-427	0.813	0.745	0.742	0.736	0.751	0.483	0.666	0.707		0.506	0.557	0.603	0.578	0.498	1.09	0.938	1.01	0.96	0.927
RERF-LC-KJ	0.863	0.919	0.959	0.782	0.834	0.871	0.911	0.88	0.778	0.709	0.692	0.689	0.766	0.668	1.17	1.01	1.04	1.07	1.02
NCI-H727	0.38	0.391	0.387	0.347	0.352	0.628	0.529	0.71	0.479	0.725	0.872	0.865	0.871	0.952	1	0.762	1.04	0.806	0.64
LCLC-97TM1	0.236	0.227	0.234	0.172	0.172	0.989	0.905	0.984	0.879	0.794	0.232	0.283	0.214	0.262	1.13	1.24	0.784	0.957	0.518
BEN	1.06	1.09	1.04	1.08	1.09	0.245	0.252	0.396	0.319	0.265	0.676	0.652	0.779	0.777	0.944	0.954	0.781	0.85	0.729
NCI-H2023	0.571	0.538	0.517	0.439	0.499	0.592	0.56	0.502	0.487	0.465	0.219	0.222	0.251	0.194	1.18	1	1.06	0.855	0.371
